Assay results reported in ChEMBL document CHEMBL1126278, “New neplanocin analogues. 1. Synthesis of 6'-modified neplanocin A derivatives as broad-spectrum antiviral agents” (J Med Chem, 1992).
In brackets after ≈: the same amount, converted by molar mass.

Legend:
Vero [1] = assay: Inhibitory effect on replication of RNA virus SFV in Vero cell line; type: functional, cell-based; details: Chlorocebus sabaeus
HEL [2] = assay: Inhibitory effect on replication of DNA virus Cell growth on HEL cell line.; type: functional, cell-based; details: Homo sapiens
MDCK [3] = assay: Inhibitory effect on replication of RNA virus cell morphology in MDCK cell line.; type: functional, cell-based; details: Canis lupus familiaris
Vero [4] = assay: Inhibitory effect on replication of RNA virus protein synthesis in Vero cell line.; type: functional, cell-based; details: Chlorocebus sabaeus
Vero [5] = assay: Inhibitory effect on replication of RNA virus PV-3 in Vero cell line.; type: functional, cell-based; details: Chlorocebus sabaeus
ESM [6] = assay: Inhibitory effect on replication of DNA virus HSV-1 (KOS) in ESM cell line; type: functional, cell-based
MDCK [7] = assay: cells; details: Canis lupus familiaris
MT4 [8] = assay: Inhibitory effect on replication of RNA virus HIV-1 in MT-4 cell line.; type: functional, cell-based; details: Homo sapiens
[9] = Inhibitory effect on replication of DNA virus HSV-2 (G) in PRK cell line.; type: functional, cell-based, herpes simplex virus; details: Human alphaherpesvirus 1, PRK
HeLa [10] = assay: Inhibitory effect on replication of RNA virus coxsB-4 in HeLa cell line.; type: functional, cell-based; details: Homo sapiens
ESM [11] = assay: Inhibitory effect on replication of DNA virus HSV-2 (G) in ESM cell line; type: functional, cell-based
PRK [12] = assay: Inhibitory effect on replication of RNA virus VSV in PRK cell line.; type: functional, cell-based; details: Oryctolagus cuniculus
MT4 [13] = assay: Inhibitory effect on replication of RNA virus cell growth in MT-4 cell line.; type: functional, cell-based; details: Homo sapiens
[14] = Inhibitory effect on replication of DNA virus HSV-1 (KOS) in PRK cell line.; type: functional, cell-based; details: Oryctolagus cuniculus
Vero [15] = assay: Inhibitory effect on replication of RNA virus SV in Vero cell line.; type: functional, cell-based; details: Chlorocebus sabaeus
HEL [16] = assay: Inhibitory effect on replication of DNA virus VZV (YS) on HEL cell line.; type: functional, cell-based; details: Homo sapiens
Vero [17] = assay: Inhibitory effect on replication of RNA virus coxsB-4 in Vero cell line; type: functional, cell-based; details: Chlorocebus sabaeus
ESM [18] = assay: Inhibitory effect on replication of DNA virus VV on ESM cell line.; type: functional, cell-based
Vero [19] = assay: Inhibitory effect on replication of RNA virus cell morphology in Vero cell line.; type: functional, cell-based; details: Chlorocebus sabaeus
PRK [20] = assay: Inhibitory effect on replication of DNA virus Cell morphology on PRK cell line; type: functional, cell-based; details: Oryctolagus cuniculus
HeLa [21] = assay: cells; details: Homo sapiens
HEL [22] = assay: Inhibitory effect on replication of DNA virus CMV (Davis) on HEL cell line.; type: functional, cell-based; details: Homo sapiens
HEL [23] = assay: Inhibitory effect on replication of DNA virus VZV (Oka) on HEL cell line.; type: functional, cell-based; details: Homo sapiens
ESM [24] = assay: Inhibitory effect on replication of RNA virus VSV in ESM cell line.; type: functional, cell-based
Vero [25] = assay: Inhibitory effect on replication of RNA virus RNA synthesis in Vero cell line.; type: functional, cell-based; details: Chlorocebus sabaeus
HEL [26] = assay: Inhibitory effect on replication of DNA virus CMV (AD-169) on HEL cell line.; type: functional, cell-based; details: Homo sapiens
Vero [27] = assay: Inhibitory effect on replication of RNA virus JV in Vero cell line.; type: functional, cell-based; details: Chlorocebus sabaeus
Vero [28] = assay: Inhibitory effect on replication of RNA virus reo-1 in Vero cell line.; type: functional, cell-based; details: Chlorocebus sabaeus
MDCK [29] = assay: cells; details: Canis lupus familiaris; remark: listed apart in the source
ESM [30] = assay: Inhibitory effect on replication of RNA virus cell morphology in ESM cell line.; type: functional, cell-based
HEL [31] = assay: Inhibitory effect on replication of DNA virus TK-VZV (07-1) on HEL cell line.; type: functional, cell-based; details: Homo sapiens
HEL [32] = assay: Inhibitory effect on replication of DNA virus TK-VZV (YSR) on HEL cell line.; type: functional, cell-based; details: Homo sapiens
PRK [33] = assay: Inhibitory effect on replication of RNA virus cell morphology in PRK cell line.; type: functional, cell-based; details: Oryctolagus cuniculus
ESM [34] = assay: Inhibitory effect on replication of DNA virus Cell morphology on ESM cell line; type: functional, cell-based
Vero [35] = assay: Inhibitory effect on replication of RNA virus TV in Vero cell line.; type: functional, cell-based; details: Chlorocebus sabaeus
PRK [36] = assay: Inhibitory effect on replication of DNA virus VV on PRK cell line.; type: functional, cell-based; details: Oryctolagus cuniculus
ESM [37] = assay: Inhibitory effect on replication of DNA virus TK-HSV-1 (VMW 1837) on ESM cell line.; type: functional, cell-based
MT4 [38] = assay: Inhibitory effect on replication of RNA virus HIV-2 in MT-4 cell line.; type: functional, cell-based; details: Homo sapiens
HeLa [39] = assay: Inhibitory effect on replication of RNA virus cell morphology in HeLa cell line.; type: functional, cell-based; details: Homo sapiens
ESM [40] = assay: Inhibitory effect on replication of DNA virus TK-HSV-1 (B2006) on ESM cell line.; type: functional, cell-based

C[C@@H](O)C1=C[C@@H](n2cnc3c(N)ncnc32)[C@H](O)[C@@H]1O
IC50 (Vero [1]): > 200 µg/mL | IC50 (HEL [2]): > 200 µg/mL | IC50 (MDCK [3]): > 100 µg/mL | IC50 (Vero [4]): 56 µg/mL (≈ 202 µM) | IC50 (Vero [5]): 0.1 µg/mL (≈ 0.361 µM) | IC50 (ESM [6]): > 400 µg/mL | IC50 (MDCK [7]): > 100 µg/mL | IC50 (MT4 [8]): > 0.03 µg/mL | IC50 [9]: > 200 µg/mL | IC50 (HeLa [10]): > 400 µg/mL | IC50 (ESM [11]): > 400 µg/mL | IC50 (PRK [12]): 0.1 µg/mL (≈ 0.361 µM) | IC50 (MT4 [13]): 0.09 µg/mL (≈ 0.325 µM) | IC50 [14]: > 400 µg/mL | IC50 (Vero [15]): 4 µg/mL (≈ 14.4 µM) | IC50 (HEL [16]): 65 µg/mL (≈ 234 µM) | IC50 (Vero [17]): > 200 µg/mL | IC50 (ESM [18]): 0.04 µg/mL (≈ 0.144 µM) | IC50 (Vero [19]): > 400 µg/mL | IC50 (PRK [20]): > 400 µg/mL | IC50 (HeLa [21]): > 400 µg/mL | IC50 (HEL [22]): 0.03 µg/mL (≈ 0.108 µM) | IC50 (HEL [23]): 21 µg/mL (≈ 75.7 µM) | IC50 (ESM [24]): 0.07 µg/mL (≈ 0.252 µM) | IC50 (Vero [25]): 0.1 µg/mL (≈ 0.361 µM) | IC50 (HEL [26]): 0.06 µg/mL (≈ 0.216 µM) | IC50 (Vero [27]): 0.4 µg/mL (≈ 1.44 µM) | IC50 (Vero [28]): 0.04 µg/mL (≈ 0.144 µM) | IC50 (MDCK [29]): > 100 µg/mL | IC50 (ESM [30]): > 400 µg/mL | IC50 (HEL [31]): 38 µg/mL (≈ 137 µM) | IC50 (HEL [32]): 6 µg/mL (≈ 21.6 µM) | IC50 (PRK [33]): > 400 µg/mL | IC50 (ESM [34]): > 400 µg/mL | IC50 (Vero [35]): 0.5 µg/mL (≈ 1.8 µM) | IC50 (PRK [36]): 0.1 µg/mL (≈ 0.361 µM) | IC50 (ESM [37]): 70 µg/mL (≈ 252 µM) | IC50 (MT4 [38]): > 0.03 µg/mL | IC50 (HeLa [39]): > 400 µg/mL | IC50 (ESM [40]): 70 µg/mL (≈ 252 µM)
